Source: patent publication EP4745135A1 (Gluetacs Therapeutics (Shanghai) Co., Ltd., priority 2023, dated 2025)

Experiments:
CK1α = target: T1, CK1α (Homo sapiens, UniProt P48729+Q96SW2); assay: Western blot, degradation of substrate protein in hPBMCs; format: cell-based
T1 construct: effects of the compounds of the present disclosure on the expression of target proteins in cells; endogenous in cells; host or cells: human PBMCs (Milecell Biotechnologies)

IKZF1 = target: T2, IKZF1 (Homo sapiens, UniProt Q13422+Q96SW2); assay: as above; format: cell-based
T2 construct: effects of the compounds of the present disclosure on the expression of target proteins in cells; endogenous in cells; host or cells: human PBMCs (Milecell Biotechnologies)
T2 sequence (Q13422 whole entry): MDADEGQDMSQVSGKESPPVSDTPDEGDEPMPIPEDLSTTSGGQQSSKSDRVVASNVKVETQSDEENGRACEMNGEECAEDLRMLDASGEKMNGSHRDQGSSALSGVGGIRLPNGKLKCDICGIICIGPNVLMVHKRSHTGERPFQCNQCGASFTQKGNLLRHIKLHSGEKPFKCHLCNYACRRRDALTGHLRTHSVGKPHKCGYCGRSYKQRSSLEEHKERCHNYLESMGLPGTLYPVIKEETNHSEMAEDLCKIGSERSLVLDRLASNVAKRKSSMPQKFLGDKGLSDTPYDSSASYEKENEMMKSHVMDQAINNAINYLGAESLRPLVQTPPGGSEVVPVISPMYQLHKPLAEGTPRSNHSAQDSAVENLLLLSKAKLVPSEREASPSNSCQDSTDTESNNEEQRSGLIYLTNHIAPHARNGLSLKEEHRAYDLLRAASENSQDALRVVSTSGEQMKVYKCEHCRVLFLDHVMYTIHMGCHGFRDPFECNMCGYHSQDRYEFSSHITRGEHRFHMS
T2 sequence (Q96SW2 whole entry): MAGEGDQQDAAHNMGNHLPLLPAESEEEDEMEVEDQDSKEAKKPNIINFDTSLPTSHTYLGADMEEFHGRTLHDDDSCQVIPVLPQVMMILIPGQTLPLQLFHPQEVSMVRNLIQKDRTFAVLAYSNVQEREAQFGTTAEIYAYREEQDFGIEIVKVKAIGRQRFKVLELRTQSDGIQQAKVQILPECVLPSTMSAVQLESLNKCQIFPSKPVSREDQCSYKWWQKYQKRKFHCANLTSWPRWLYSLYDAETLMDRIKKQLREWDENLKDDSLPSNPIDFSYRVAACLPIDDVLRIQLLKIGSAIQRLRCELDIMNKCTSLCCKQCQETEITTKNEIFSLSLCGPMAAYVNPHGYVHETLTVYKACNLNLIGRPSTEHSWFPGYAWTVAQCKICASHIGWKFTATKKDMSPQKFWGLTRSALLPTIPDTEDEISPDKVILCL
T2 sequence (Q16531 whole entry partner): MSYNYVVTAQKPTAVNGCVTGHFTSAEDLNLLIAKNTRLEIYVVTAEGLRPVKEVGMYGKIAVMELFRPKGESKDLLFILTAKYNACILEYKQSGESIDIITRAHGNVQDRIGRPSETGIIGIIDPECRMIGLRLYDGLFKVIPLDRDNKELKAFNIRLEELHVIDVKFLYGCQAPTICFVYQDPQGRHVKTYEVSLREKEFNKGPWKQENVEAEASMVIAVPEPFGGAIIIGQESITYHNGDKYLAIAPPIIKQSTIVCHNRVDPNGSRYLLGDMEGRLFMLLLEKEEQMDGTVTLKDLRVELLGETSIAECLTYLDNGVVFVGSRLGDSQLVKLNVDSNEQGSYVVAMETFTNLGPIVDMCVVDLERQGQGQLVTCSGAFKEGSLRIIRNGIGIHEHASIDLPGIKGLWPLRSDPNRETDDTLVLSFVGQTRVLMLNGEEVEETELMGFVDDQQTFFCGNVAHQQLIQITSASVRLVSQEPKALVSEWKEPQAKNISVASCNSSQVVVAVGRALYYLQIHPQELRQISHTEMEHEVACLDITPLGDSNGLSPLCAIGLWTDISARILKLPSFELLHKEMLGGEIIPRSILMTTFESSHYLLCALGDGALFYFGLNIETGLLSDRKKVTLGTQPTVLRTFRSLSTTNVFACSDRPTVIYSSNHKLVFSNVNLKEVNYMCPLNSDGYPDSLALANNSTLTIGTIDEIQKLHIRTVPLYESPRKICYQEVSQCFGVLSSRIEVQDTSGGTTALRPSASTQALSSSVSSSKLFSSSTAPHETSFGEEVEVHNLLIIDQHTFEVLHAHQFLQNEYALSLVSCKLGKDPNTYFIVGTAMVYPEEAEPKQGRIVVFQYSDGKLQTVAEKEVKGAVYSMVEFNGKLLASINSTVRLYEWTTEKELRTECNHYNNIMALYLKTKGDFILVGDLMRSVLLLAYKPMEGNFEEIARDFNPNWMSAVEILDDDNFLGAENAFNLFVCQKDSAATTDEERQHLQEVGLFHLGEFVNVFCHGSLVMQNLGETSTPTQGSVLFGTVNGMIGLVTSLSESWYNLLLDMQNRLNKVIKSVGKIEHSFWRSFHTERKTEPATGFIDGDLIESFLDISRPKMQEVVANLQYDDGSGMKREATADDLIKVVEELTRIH

IKZF2 = target: T3, IKZF2 (Homo sapiens, UniProt Q96SW2+Q9UKS7); assay: as above; format: cell-based
T3 construct: effects of the compounds of the present disclosure on the expression of target proteins in cells; endogenous in cells; host or cells: human PBMCs (Milecell Biotechnologies)
T3 sequence (Q9UKS7 whole entry): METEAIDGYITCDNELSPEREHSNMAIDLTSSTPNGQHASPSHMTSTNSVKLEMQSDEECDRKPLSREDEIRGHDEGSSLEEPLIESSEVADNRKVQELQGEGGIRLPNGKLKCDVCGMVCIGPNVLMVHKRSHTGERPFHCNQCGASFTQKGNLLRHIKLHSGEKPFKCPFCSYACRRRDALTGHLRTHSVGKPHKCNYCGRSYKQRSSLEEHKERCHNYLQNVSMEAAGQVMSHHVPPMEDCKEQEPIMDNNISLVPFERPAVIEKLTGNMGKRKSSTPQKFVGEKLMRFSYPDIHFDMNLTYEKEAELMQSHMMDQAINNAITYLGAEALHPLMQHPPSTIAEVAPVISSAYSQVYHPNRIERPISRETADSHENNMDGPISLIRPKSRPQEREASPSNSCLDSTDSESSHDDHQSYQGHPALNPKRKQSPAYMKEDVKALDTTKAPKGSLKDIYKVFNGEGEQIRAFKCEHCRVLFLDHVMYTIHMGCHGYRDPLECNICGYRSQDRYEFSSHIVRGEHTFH
T3 sequence (Q96SW2 whole entry): as the sequence (Q96SW2 whole entry) above
T3 sequence (Q16531 whole entry partner): as the sequence (Q16531 whole entry partner) above

IKZF3 = target: T4, IKZF3 (Homo sapiens, UniProt Q96SW2+Q9UKT9); assay: as above; format: cell-based
T4 construct: effects of the compounds of the present disclosure on the expression of target proteins in cells; endogenous in cells; host or cells: human PBMCs (Milecell Biotechnologies)
T4 sequence (Q9UKT9 whole entry): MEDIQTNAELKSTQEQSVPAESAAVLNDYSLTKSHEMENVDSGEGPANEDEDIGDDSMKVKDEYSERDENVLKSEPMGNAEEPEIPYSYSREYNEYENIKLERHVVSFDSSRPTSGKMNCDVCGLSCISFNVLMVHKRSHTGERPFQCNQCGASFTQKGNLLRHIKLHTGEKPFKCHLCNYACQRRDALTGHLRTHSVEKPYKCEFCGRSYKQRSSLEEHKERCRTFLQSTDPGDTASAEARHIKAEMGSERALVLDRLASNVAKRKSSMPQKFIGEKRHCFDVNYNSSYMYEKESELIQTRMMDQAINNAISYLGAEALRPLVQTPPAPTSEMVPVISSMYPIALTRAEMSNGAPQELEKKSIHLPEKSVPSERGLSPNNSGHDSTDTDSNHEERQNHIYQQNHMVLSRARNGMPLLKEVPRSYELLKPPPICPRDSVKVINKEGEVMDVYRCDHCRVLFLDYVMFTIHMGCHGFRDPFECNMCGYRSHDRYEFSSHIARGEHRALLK
T4 sequence (Q96SW2 whole entry): as the sequence (Q96SW2 whole entry) above
T4 sequence (Q16531 whole entry partner): as the sequence (Q16531 whole entry partner) above

WEE1 = target: T5, WEE1 (Homo sapiens, UniProt P30291+Q96SW2); assay: as above; format: cell-based
T5 construct: effects of the compounds of the present disclosure on the expression of target proteins in cells; endogenous in cells; host or cells: human PBMCs (Milecell Biotechnologies)
T5 sequence (P30291 whole entry): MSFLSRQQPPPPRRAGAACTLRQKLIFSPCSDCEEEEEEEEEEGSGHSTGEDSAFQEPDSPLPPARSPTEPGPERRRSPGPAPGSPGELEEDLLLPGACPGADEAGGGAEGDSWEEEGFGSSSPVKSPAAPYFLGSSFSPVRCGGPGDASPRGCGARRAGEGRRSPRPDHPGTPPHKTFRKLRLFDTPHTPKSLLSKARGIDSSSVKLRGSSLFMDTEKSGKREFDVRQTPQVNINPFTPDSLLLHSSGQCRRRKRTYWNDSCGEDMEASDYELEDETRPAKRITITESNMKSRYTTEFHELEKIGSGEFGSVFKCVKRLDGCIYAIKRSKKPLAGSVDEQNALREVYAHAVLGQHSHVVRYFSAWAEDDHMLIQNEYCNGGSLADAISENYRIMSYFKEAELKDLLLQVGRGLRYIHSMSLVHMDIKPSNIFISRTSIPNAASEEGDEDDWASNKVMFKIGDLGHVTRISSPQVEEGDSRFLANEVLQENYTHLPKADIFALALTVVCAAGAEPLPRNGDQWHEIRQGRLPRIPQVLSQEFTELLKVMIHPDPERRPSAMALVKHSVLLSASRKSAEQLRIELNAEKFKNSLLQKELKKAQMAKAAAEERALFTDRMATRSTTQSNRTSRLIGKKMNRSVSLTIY
T5 sequence (Q96SW2 whole entry): as the sequence (Q96SW2 whole entry) above
T5 sequence (Q16531 whole entry partner): as the sequence (Q16531 whole entry partner) above

GSPT1 = assay: as above; format: cell-based, Human
[1] = target: T6, human Cereblon WT GST-tagged protein (Homo sapiens, UniProt Q96SW2); assay: CRBN-binding affinity, HTRF (CEREBLON BINDING kit); conditions: for inhibition at 0.5 µM: read-out: Inhibition Rate at 0.5 µM (%); for inhibition at 2 µM: read-out: Inhibition Rate at 2 µM (%)
T6 construct: purchased CISBIO 64BDCRBNPEH
T6 sequence (Q96SW2 whole entry): as the sequence (Q96SW2 whole entry) above

[2] = Western blot, 24 hours of compound treatment, compounds tested at 50 nM and 500 nM (concentration for the table not stated)
[3] = 24 hours treatment, compounds at 50 nM and 500 nM (concentration behind the class not stated)

T1 sequence (P48729 whole entry): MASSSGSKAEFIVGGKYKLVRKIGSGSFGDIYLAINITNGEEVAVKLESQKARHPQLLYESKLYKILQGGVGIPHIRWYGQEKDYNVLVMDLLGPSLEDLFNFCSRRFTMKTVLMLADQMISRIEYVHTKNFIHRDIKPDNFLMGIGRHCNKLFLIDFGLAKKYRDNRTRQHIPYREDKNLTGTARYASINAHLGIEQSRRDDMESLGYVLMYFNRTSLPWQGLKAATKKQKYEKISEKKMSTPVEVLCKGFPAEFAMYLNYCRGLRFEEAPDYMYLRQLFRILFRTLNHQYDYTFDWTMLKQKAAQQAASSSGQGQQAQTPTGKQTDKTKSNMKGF
T1 sequence (Q96SW2 whole entry): as the sequence (Q96SW2 whole entry) above
T1 sequence (Q16531 whole entry partner): as the sequence (Q16531 whole entry partner) above

SMILES	CK1α substrate protein remaining % (CK1α; [2])	IKZF 1 substrate protein remaining % (IKZF1; [2])	IKZF2 substrate protein remaining % (IKZF2; [2])	IKZF3 substrate protein remaining % (IKZF3; [2])	Wee1 substrate protein remaining % (WEE1; [2])	GSPT1 substrate protein remaining % (GSPT1; [2])	inhibition at 0.5 µM [1] [%]	inhibition at 2 µM [1] [%]	CK1α substrate protein remaining % (CK1α; [3])	IKZF 1 substrate protein remaining % (IKZF1; [3])	IKZF2 substrate protein remaining % (IKZF2; [3])	IKZF3 substrate protein remaining % (IKZF3; [3])	Wee1 substrate protein remaining % (WEE1; [3])	GSPT1 substrate protein remaining % (GSPT1; [3])	IC50 ([1]; CRBN binding, HTRF, 3 hours at room temperature, read-out: HTRF IC50) [µM]
O=C1CCC(N2Cc3c(CN4CC=C(c5ccnc(Cl)c5Cl)CC4)cccc3C2=S)C(=O)N1 (stereo not shown) [GT-08462, 3-(4-((2',3'-dichloro-3,6-dihydro-[4,4'-bipyridin]-1(2H)-yl)methyl)-1-thioxoisoindolin-2-yl)piperidine-2,6-dione]	B (80%< substrate protein remaining %≤ 100%)	B (80%< substrate protein remaining %≤ 100%)	B (80%< substrate protein remaining %≤ 100%)	B (80%< substrate protein remaining %≤ 100%)	A (0% ≤ substrate protein remaining % ≤ 80%)	B (80%< substrate protein remaining %≤ 100%)	60 to 80	80 to 100	–	–	–	–	–	–	–
O=C1CCC(N2Cc3c(CN4CCN(c5ncc(Cl)cc5Cl)CC4)cccc3C2=S)C(=O)N1 (stereo not shown) [GT-08703, 3-(4-((4-(3,5-dichloropyridin-2-yl)piperazin-1-yl)methyl)-1-thioxoisoindolin-2-yl)piperidine-2,6-dione]	B (80%< substrate protein remaining %≤ 100%)	B (80%< substrate protein remaining %≤ 100%)	B (80%< substrate protein remaining %≤ 100%)	B (80%< substrate protein remaining %≤ 100%)	A (0% ≤ substrate protein remaining % ≤ 80%)	B (80%< substrate protein remaining %≤ 100%)	53 to 60	60 to 80	–	–	–	–	–	–	–
O=C1CCC(N2Cc3c(CN4CCN(c5ccc(Cl)c(Cl)c5)CC4)cccc3C2=S)C(=O)N1 (stereo not shown) [GT-08502, 3-(4-((4-(3,4-dichlorophenyl)piperazin-1-yl)methyl)-1-thioxoisoindolin-2-yl)piperidine-2,6-dione]	B (80%< substrate protein remaining %≤ 100%)	B (80%< substrate protein remaining %≤ 100%)	A (0% ≤ substrate protein remaining % ≤ 80%)	B (80%< substrate protein remaining %≤ 100%)	A (0% ≤ substrate protein remaining % ≤ 80%)	A (0% ≤ substrate protein remaining % ≤ 80%)	40 to 53	60 to 80	–	–	–	–	–	–	–
O=C1CCC(N2Cc3c(CN4CCN(c5ncnc6sc(-c7ccccc7)cc56)CC4)cccc3C2=S)C(=O)N1 (stereo not shown) [GT-08919, 3-(4-((4-(6-phenylthieno[2,3-d]pyrimidin-4-yl)piperazin-1-yl)methyl)-1-thioxoisoindolin-2-yl)piperidine-2,6-dione]	–	–	–	–	–	–	20 to 30	60 to 80	B (80%< substrate protein remaining %≤ 100%)	B (80%< substrate protein remaining %≤ 100%)	B (80%< substrate protein remaining %≤ 100%)	B (80%< substrate protein remaining %≤ 100%)	A (0% ≤ substrate protein remaining % ≤ 80%)	B (80%< substrate protein remaining %≤ 100%)	–
O=C1CCC(N2Cc3c(CN4CC=C(c5ncnc6scc(-c7ccccc7)c56)CC4)cccc3C2=S)C(=O)N1 (stereo not shown) [GT-08957, 3-(4-((4-(5-phenylthieno[2,3-d]pyrimidin-4-yl)-3,6-dihydropyridin-1(2H)-yl)methyl)-1-thioxoisoindolin-2-yl)piperidine-2,6-dione]	–	–	–	–	–	–	60 to 80	80 to 100	B (80%< substrate protein remaining %≤ 100%)	B (80%< substrate protein remaining %≤ 100%)	B (80%< substrate protein remaining %≤ 100%)	B (80%< substrate protein remaining %≤ 100%)	A (0% ≤ substrate protein remaining % ≤ 80%)	B (80%< substrate protein remaining %≤ 100%)	–
O=C1CCC(N2Cc3cc(CN4CCN(c5ccncc5Cl)CC4)ccc3C2=S)C(=O)N1 (stereo not shown) [GT-09238, 3-(5-((4-(3-chloropyridin-4-yl)piperazin-1-yl)methyl)-1-thioxoisoindolin-2-yl)piperidine-2,6-dione]	A (0% ≤ substrate protein remaining % ≤ 80%)	B (80%< substrate protein remaining %≤ 100%)	A (0% ≤ substrate protein remaining % ≤ 80%)	A (0% ≤ substrate protein remaining % ≤ 80%)	B (80%< substrate protein remaining %≤ 100%)	A (0% ≤ substrate protein remaining % ≤ 80%)	60 to 80	80 to 100	–	–	–	–	–	–	–
O=C1CCC(N2Cc3cc(CN4CCN(c5ccc(F)c(F)c5)CC4)ccc3C2=S)C(=O)N1 (stereo not shown) [GT-08627, 3-(5-((4-(3,4-difluorophenyl)piperazin-1-yl)methyl)-1-thioxoisoindolin-2-yl)piperidine-2,6-dione]	B (80%< substrate protein remaining %≤ 100%)	B (80%< substrate protein remaining %≤ 100%)	B (80%< substrate protein remaining %≤ 100%)	B (80%< substrate protein remaining %≤ 100%)	B (80%< substrate protein remaining %≤ 100%)	A (0% ≤ substrate protein remaining % ≤ 80%)	60 to 80	80 to 100	–	–	–	–	–	–	–
O=C1CCC(N2Cc3c(CN4CCn5c(nnc5C(F)(F)F)C4)cccc3C2=S)C(=O)N1 (stereo not shown) [GT-08365, 3-(1-thioxo-4-((3-(trifluoromethyl)-5,6-dihydro-[1,2,4]triazolo[4,3-a]pyrazin-7(8H)-yl)methyl)isoindolin-2-yl)piperidine-2,6-dione]	B (80%< substrate protein remaining %≤ 100%)	B (80%< substrate protein remaining %≤ 100%)	B (80%< substrate protein remaining %≤ 100%)	B (80%< substrate protein remaining %≤ 100%)	B (80%< substrate protein remaining %≤ 100%)	A (0% ≤ substrate protein remaining % ≤ 80%)	40 to 53	60 to 80	–	–	–	–	–	–	–
O=C1CCC(N2Cc3c(CN4CCC(c5ccccc5C(F)(F)F)CC4)cccc3C2=S)C(=O)N1 (stereo not shown) [GT-08598, 3-(1-thioxo-4-((4-(2-(trifluoromethyl)phenyl)piperidin-1-yl)methyl)isoindolin-2-yl)piperidine-2,6-dione]	B (80%< substrate protein remaining %≤ 100%)	B (80%< substrate protein remaining %≤ 100%)	B (80%< substrate protein remaining %≤ 100%)	B (80%< substrate protein remaining %≤ 100%)	A (0% ≤ substrate protein remaining % ≤ 80%)	A (0% ≤ substrate protein remaining % ≤ 80%)	40 to 53	60 to 80	–	–	–	–	–	–	–
O=C1CCC(N2Cc3cc(CO)ccc3C2=S)C(=O)N1 (stereo not shown) [GT-06977, 3-(5-(hydroxymethyl)-1-thioxoisoindolin-2-yl)piperidine-2,6-dione]	–	–	–	–	–	–	–	–	B (80%< substrate protein remaining %≤ 100%)	B (80%< substrate protein remaining %≤ 100%)	B (80%< substrate protein remaining %≤ 100%)	A (0% ≤ substrate protein remaining % ≤ 80%)	A (0% ≤ substrate protein remaining % ≤ 80%)	B (80%< substrate protein remaining %≤ 100%)	< 0.1
